Source: patent US20230349907A1, “BIOPROBES FOR LYSYL OXIDASES AND USES THEREOF” (Pharmaxis Ltd., priority 2020, published 2023)
Counter-ions that a name gives are not always drawn.

How the values were obtained:
Bovine LOX = Bovine LOX (Bos taurus (Bovine), UniProt P33072); experiment: LOX inhibition, peroxidase-coupled Amplex Red assay; format: biochemical; conditions: 30 min preincubation at 37° C.
Excerpt: (§1) Method to Determine the Ability of Compounds of the Invention to Inhibit LOX and LOXL1-4 from Different Sources […] S., Trackman P. C. and Kagan H. M., Reaction of aortic lysyl oxidase with beta-aminoproprionitrile. J Biol Chem 1983; 258: 4331-4338). There are five LOX family members; these are LOX, LOXL1, LOXL2, LOXL3 and LOXL4. LOX and LOXL family members can be acquired as recombinant active proteins from commercial sources, or extracted from animal tissues like bovine aorta, tendons, pig skin; or prepared from cell cultures. The inhibitory effects of the compounds of the present invention were tested against the given LOX-LOXL preparation using a high-throughput coupled colorimetric method (Holt A. and Palcic M., A peroxidase-coupled continuous absorbance plate-reader assay for flavin monoamine oxidases, copper-containing amine oxidases and related enzymes. Nat. Protoc. 2006; 1: 2498-2505). The assay was developed using either 384 or 96 well format. […] Test compounds were dissolved in DMSO and tested in a Concentration Response Curve (CRC) with 11 data points, typically in the micromolar or nanomolar range after incubation with the enzyme for 30 min at 37° C. 25 μL of a reaction mixture containing twice the KM concentration of putrescine (Sigma Aldrich, e.g. 20 mM for LOX, or 10 mM for LOXL2 and LOXL3), 120 μM Amplex Red (Sigma Aldrich) and 1.5 U/mL horseradish peroxidase (Sigma Aldrich) prepared in 1.2 M urea, 50 mM sodium borate buffer (pH 8.2) were then added to the corresponding wells. The above volumes were doubled in the case of 96 well plates. The fluorescence (RFU) was read every 2.5 m n for 30 m u […], excitation 565 nm and emission 590 nm (Optima; BMG labtech). The slope of the kinetics for each well was calculated using MARS data analysis software (BMG labtech) and this value was used to deduce the IC50 value (Dotmatics).

rhLOXL2 = rhLOXL2 (Homo sapiens (Human), UniProt Q9Y4K0); experiment: LOXL2 inhibition, peroxidase-coupled Amplex Red assay; format: biochemical; conditions: 30 min preincubation at 37° C.
Excerpt: as §1

Sequence of rhLOXL2 (Q9Y4K0 26-774): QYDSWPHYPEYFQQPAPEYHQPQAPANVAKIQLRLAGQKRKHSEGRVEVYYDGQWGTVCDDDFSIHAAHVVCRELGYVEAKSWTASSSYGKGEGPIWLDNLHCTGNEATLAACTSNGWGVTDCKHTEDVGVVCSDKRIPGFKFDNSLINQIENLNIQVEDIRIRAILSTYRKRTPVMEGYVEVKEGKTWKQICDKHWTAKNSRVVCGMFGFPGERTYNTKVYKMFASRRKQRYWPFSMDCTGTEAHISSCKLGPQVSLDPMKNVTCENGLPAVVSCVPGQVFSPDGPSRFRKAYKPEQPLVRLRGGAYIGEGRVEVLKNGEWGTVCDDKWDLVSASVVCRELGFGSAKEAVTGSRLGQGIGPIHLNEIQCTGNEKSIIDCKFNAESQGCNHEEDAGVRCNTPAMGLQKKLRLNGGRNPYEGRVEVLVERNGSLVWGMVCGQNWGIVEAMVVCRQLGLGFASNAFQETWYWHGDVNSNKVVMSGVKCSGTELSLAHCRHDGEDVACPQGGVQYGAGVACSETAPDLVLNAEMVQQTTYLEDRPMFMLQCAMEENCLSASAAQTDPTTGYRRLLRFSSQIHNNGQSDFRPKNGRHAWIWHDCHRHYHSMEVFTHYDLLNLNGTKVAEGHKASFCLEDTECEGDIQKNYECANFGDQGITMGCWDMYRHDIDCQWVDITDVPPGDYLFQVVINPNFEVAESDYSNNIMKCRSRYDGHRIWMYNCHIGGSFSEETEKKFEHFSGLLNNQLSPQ
Sequence of Bovine LOX (P33072 170-418): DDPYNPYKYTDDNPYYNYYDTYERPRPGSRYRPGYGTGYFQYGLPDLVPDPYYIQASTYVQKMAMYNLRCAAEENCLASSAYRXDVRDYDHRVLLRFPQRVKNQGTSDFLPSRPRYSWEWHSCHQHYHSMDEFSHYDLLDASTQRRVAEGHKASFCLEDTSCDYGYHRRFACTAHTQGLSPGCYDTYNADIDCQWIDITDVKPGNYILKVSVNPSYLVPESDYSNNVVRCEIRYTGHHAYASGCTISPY

| Compound | IC50 (Bovine LOX) [nM] | IC50 (rhLOXL2) [nM] |
| --- | --- | --- |
| Cc1c(-c2cccc(S(=O)(=O)N(C)C)c2)c2cc(C(=O)NCCCCCNC(=O)CCCC[C@@H]3SC[C@@H]4NC(=O)N[C@@H]43)ccc2n1C/C(F)=C/CN [Compound 1-2, 1-((Z)-4-amino-2-fluorobut-2-en-1-yl)-3-(3-(N,N-dimethylsulfamoyl)phenyl)-2-methyl-N-(5-(5-((3aS,4S,6aR)-2-oxohexahydro-1H-thieno[3,4-d]imidazol-4-yl)pentanamido)pentyl)-1H-indole-5-carboxamide] | > 300 | < 300 |
| Cc1c(-c2cccc(S(=O)(=O)N(C)C)c2)c2cc(C(=O)Nc3ccc4c(c3)n(Cc3cn(CCOCCOCCOCCNC(=O)CCCC[C@@H]5SC[C@@H]6NC(=O)N[C@@H]65)nn3)c(=O)n4Cc3cn(CCOCCOCCOCCNC(=O)CCCC[C@@H]4SC[C@@H]5NC(=O)N[C@@H]54)nn3)ccc2n1C/C(F)=C/CN [Compound 1-3, hydrochloride] | > 300 | < 300 |
| Cc1c(-c2cccc(S(=O)(=O)N(C)C)c2)c2cc(C(=O)Nc3ccc4c(c3)n(CCn3cc(CCNC(=O)CCCC[C@@H]5SC[C@@H]6NC(=O)N[C@@H]65)nn3)c(=O)n4CCn3cc(CCNC(=O)CCCC[C@@H]4SC[C@@H]5NC(=O)N[C@@H]54)nn3)ccc2n1C/C(F)=C/CN [Compound 1-4, N,N′-((((5-(1-((Z)-4-amino-2-fluorobut-2-en-1-yl)-3-(3-(N,N-dimethylsulfamoyl)phenyl)-2-methyl-1H-indole-5-carboxamido)-2-oxo-1H-benzo[d]imidazole-1,3(2H)-diyl)bis(ethane-2,1-diyl))bis(1H-1,2,3-triazole-1,4-diyl))bis(ethane-2,1-diyl))bis(5-((3aS,4S,6aR)-2-oxohexahydro-1H-thieno[3,4-d]imidazol-4-yl)pentanamide) hydrochloride] | > 300 | < 300 |
| Cc1c(-c2cccc(S(=O)(=O)N(C)C)c2)c2cc(C(=O)Nc3cc(C(=O)NCCCCCNC(=O)CCCC[C@@H]4SC[C@@H]5NC(=O)N[C@@H]54)cc(C(=O)NCCCCCNC(=O)CCCC[C@@H]4SC[C@@H]5NC(=O)N[C@@H]54)c3)ccc2n1C/C(F)=C/CN [Compound 1-5, 5-(1-((Z)-4-amino-2-fluorobut-2-en-1-yl)-3-(3-(N,N-dimethylsulfamoyl)phenyl)-2-methyl-1H-indole-5-carboxamido)-N^1,N^3-bis(5-(5-((3aS,4S,6aR)-2-oxohexahydro-1H-thieno[3,4-d]imidazol-4-yl)pentanamido)pentyl)isophthalamide hydrochloride] | > 300 | < 300 |
| Cc1c(-c2cccc(S(=O)(=O)N(C)C)c2)c2cc(-c3cn(-c4cc(C(=O)NCCCCCNC(=O)CCCC[C@@H]5SC[C@@H]6NC(=O)N[C@@H]65)cc(C(=O)NCCCCCNC(=O)CCCC[C@@H]5SC[C@@H]6NC(=O)N[C@@H]65)c4)nn3)ccc2n1C/C(F)=C/CN [Compound 1-6, 5-(4-(1-((Z)-4-amino-2-fluorobut-2-en-1-yl)-3-(3-(N,N-dimethylsulfamoyl)phenyl)-2-methyl-1H-indol-5-yl)-1H-1,2,3-triazol-1-yl)-N^1,N^3-bis(5-(5-((3aS,4S,6aR)-2-oxohexahydro-1H-thieno[3,4-d]imidazol-4-yl)pentanamido)pentyl)isophthalamide hydrochloride] | > 300 | < 300 |
| NC/C=C(\F)CS(=O)(=O)c1ccc(C(=O)NCc2cn(CCOCCOCCOCCNC(=O)CCCC[C@@H]3SC[C@@H]4NC(=O)N[C@@H]43)nn2)cc1 [Compound 1-7, 4-(((Z)-4-amino-2-fluorobut-2-en-1-yl)sulfonyl)-N-((1-(13-oxo-17-((3aS,4S,6aR)-2-oxohexahydro-1H-thieno[3,4-d]imidazol-4-yl)-3,6,9-trioxa-12-azaheptadecyl)-1H-1,2,3-triazol-4-yl)methyl)benzamide hydrochloride] | > 300 | > 300 |
| NC/C=C(\F)CS(=O)(=O)c1ccccc1C(=O)NCCCCCNC(=O)CCCC[C@@H]1SC[C@@H]2NC(=O)N[C@@H]21 [Compound 1-8, 2-(((Z)-4-amino-2-fluorobut-2-en-1-yl)sulfonyl)-N-(5-(5-((3aS,4S,6aR)-2-oxohexahydro-1H-thieno[3,4-d]imidazol-4-yl)pentanamido)pentyl)benzamide hydrochloride] | > 300 | > 300 |
| NC/C=C(\F)CS(=O)(=O)c1cccc(C(=O)NCCCCCNC(=O)CCCC[C@@H]2SC[C@@H]3NC(=O)N[C@@H]32)c1 [Compound 1-9, 3-(((Z)-4-amino-2-fluorobut-2-en-1-yl)sulfonyl)-N-(5-(5-((3aS,4S,6aR)-2-oxohexahydro-1H-thieno[3,4-d]imidazol-4-yl)pentanamido)pentyl)benzamide hydrochloride] | > 300 | > 300 |
| NC/C=C(\F)CS(=O)(=O)c1cccc(C(=O)Nc2cc(C(=O)N3CCN(C(=O)CCCC[C@@H]4SC[C@@H]5NC(=O)N[C@@H]54)CC3)cc(C(=O)N3CCN(C(=O)CCCC[C@@H]4SC[C@@H]5NC(=O)N[C@@H]54)CC3)c2)c1 [Compound 1-10, 3-(((Z)-4-amino-2-fluorobut-2-en-1-yl)sulfonyl)-N-(3,5-bis(4-(5-((3aS,4S,6aR)-2-oxohexahydro-1H-thieno[3,4-d]imidazol-4-yl)pentanoyl)piperazine-1-carbonyl)phenyl)benzamide hydrochloride] | > 300 | > 300 |
| NC/C=C(\F)CS(=O)(=O)c1cccc(OCCCc2cn(CCCCC[C@@H]3SC[C@@H]4NC(=O)N[C@@H]43)nn2)c1 [Compound 1-11, (3aS,4S,6aR)-4-(5-(4-(3-(3-(((Z)-4-amino-2-fluorobut-2-en-1-yl)sulfonyl)phenoxy)propyl)-1H-1,2,3-triazol-1-yl)pentyl)tetrahydro-1H-thieno[3,4-d]imidazol-2(3H)-one hydrochloride] | > 300 | < 300 |
| NC/C=C(\F)CS(=O)(=O)c1cccc(N(CCCc2cn(CCCCC[C@@H]3SC[C@@H]4NC(=O)N[C@@H]43)nn2)CCCc2cn(CCCCC[C@@H]3SC[C@@H]4NC(=O)N[C@@H]43)nn2)c1 [Compound 1-13, (3aS,3a'S,4S,4'S,6aR,6a′R)-4,4′-(((((3-(((Z)-4-amino-2-fluorobut-2-en-1-yl)sulfonyl)phenyl)azanediyl)bis(propane-3,1-diyl))bis(1H-1,2,3-triazole-4,1-diyl))bis(pentane-5,1-diyl))bis(tetrahydro-1H-thieno[3,4-d]imidazol-2(3H)-one) hydrochloride] | > 300 | > 300 |
| NC/C=C(\F)CS(=O)(=O)c1cccc(NCCCc2cn(CCCCC[C@@H]3SC[C@@H]4NC(=O)N[C@@H]43)nn2)c1 [Compound 1-14, hydrochloride] | > 300 | > 300 |
| CN(C)S(=O)(=O)c1ccc(C(OCc2ccc(-n3cc(CNC(=O)CCOCCOCCOCCOCCNC(=O)CCCC[C@@H]4SC[C@@H]5NC(=O)N[C@@H]54)nn3)cc2)c2cn(C/C(F)=C/CN)nn2)cc1 (stereo partly drawn) [Compound 1-16, N-((1-(4-(((1-((Z)-4-amino-2-fluorobut-2-en-1-yl)-1H-1,2,3-triazol-4-yl)(4-(N,N-dimethylsulfamoyl)phenyl)methoxy)methyl)phenyl)-1H-1,2,3-triazol-4-yl)methyl)-1-(5-((3aS,4S,6aR)-2-oxohexahydro-1H-thieno[3,4-d]imidazol-4-yl)pentanamido)-3,6,9,12-tetraoxapentadecan-15-amide hydrochloride] | > 300 | < 300 |
